From ChEMBL document CHEMBL5233247, “Recent advances in DNA gyrase-targeted antimicrobial agents” (Eur J Med Chem, 2020)
Values after ≈ are worked out from the molar mass of the structure shown.

Tests used:
[1] = target: DNA gyrase (Escherichia coli, UniProt P0AES4+P0AES6); experiment: Inhibition of Escherichia coli DNA gyrase; assay type: protein-complex assay
[2] = target: T1, DNA gyrase (Staphylococcus aureus, UniProt P0A0K8+P20831); experiment: Inhibition of Staphylococcus aureus DNA gyrase; assay type: protein-complex assay
[3] = tested on: Mycobacterium tuberculosis; experiment: Antitubercular activity against Mycobacterium tuberculosis H37Rv MTCC-200; assay type: functional
[4] = tested on: Escherichia coli; experiment: Antibacterial activity against Escherichia coli DSM 1116 by microdilution assay; assay type: functional
[5] = tested on: Bacillus subtilis; experiment: Antibacterial activity against Bacillus subtilis DSM 10 by microdilution assay; assay type: functional
[6] = tested on: Mycolicibacterium phlei; experiment: Antibacterial activity against Mycobacterium phlei DSM 750 by microdilution assay; assay type: functional
[7] = tested on: Bacillus subtilis; experiment: Antibacterial activity against Bacillus subtilis; assay type: functional
[8] = tested on: Enterococcus faecalis; experiment: Antimicrobial activity against Enterococcus faecalis ATCC 29212 incubated for 18 to 24 hrs by double micro-dilution method; assay type: functional; details: time 18-24 hrs
[9] = tested on: Pseudomonas aeruginosa; experiment: Antimicrobial activity against Pseudomonas aeruginosa ATCC 27853 incubated for 18 to 24 hrs by double micro-dilution method; assay type: functional; details: time 18-24 hrs
[10] = tested on: Staphylococcus aureus; experiment: Antimicrobial activity against Staphylococcus aureus ATCC 25923 incubated for 18 to 24 hrs by double micro-dilution method; assay type: functional; details: time 18-24 hrs
[11] = tested on: Klebsiella pneumoniae; experiment: Antimicrobial activity against Klebsiella pneumoniae ATCC 13883 incubated for 18 to 24 hrs by double micro-dilution method; assay type: functional; details: time 18-24 hrs
[12] = tested on: Acinetobacter haemolyticus; experiment: Antimicrobial activity against Acinetobacter haemolyticus ATCC 19002 incubated for 18 to 24 hrs by double micro-dilution method; assay type: functional; details: time 18-24 hrs
[13] = tested on: Acinetobacter baumannii; experiment: Antibacterial activity against Acinetobacter baumannii; assay type: functional
[14] = tested on: Staphylococcus aureus; experiment: Antibacterial activity against methicillin-sensitive Staphylococcus aureus; assay type: functional, organism-based
[15] = tested on: Staphylococcus aureus; experiment: Antibacterial activity against healthcare-acquired methicillin-resistant Staphylococcus aureus; assay type: functional
[16] = tested on: Streptococcus pneumoniae; experiment: Antibacterial activity against Streptococcus pneumoniae; assay type: functional
[17] = target: T2, DNA gyrase subunit A/DNA gyrase subunit B (Mycobacterium tuberculosis (strain ATCC 25618 / H37Rv), UniProt P9WG45+P9WG47); experiment: Inhibition of Mycobacterium tuberculosis DNA gyrase; assay type: protein-complex assay
[18] = tested on: Enterococcus faecalis; experiment: Antibacterial activity against Enterococcus faecalis; assay type: functional
[19] = tested on: Staphylococcus aureus; experiment: Antibacterial activity against community-acquired methicillin-resistant Staphylococcus aureus; assay type: functional
[20] = tested on: Mycobacterium tuberculosis; experiment: Anti-tubercular activity against Mycobacterium tuberculosis H37Rv strain; assay type: functional
[21] = tested on: Staphylococcus aureus; experiment: Antibacterial activity against methicillin-resistant Staphylococcus aureus; assay type: functional, organism-based
[22] = target: T1, DNA gyrase; experiment: Inhibition of Staphylococcus aureus DNA gyrase assessed as relaxation of pBR322 DNA by supercoiling assay; assay type: protein-complex assay
[23] = tested on: Escherichia coli; experiment: Antibacterial activity against Escherichia coli assessed as zone of inhibition; assay type: functional
[24] = target: T2, DNA gyrase subunit A/DNA gyrase subunit B; experiment: Inhibition of Mycobacterium tuberculosis (MTB) DNA gyrase using pBR322 DNA by supercoiling assay; assay type: protein-complex assay
[25] = tested on: Mycobacterium tuberculosis; experiment: Antimycobacterial activity against Mycobacterium tuberculosis incubated for 7 days by MABA assay; assay type: functional; details: 168 h, time 7 day
[26] = tested on: Bacillus cereus; experiment: Antibacterial activity against Bacillus cereus; assay type: functional
[27] = tested on: Pseudomonas aeruginosa; experiment: Antibacterial activity against Pseudomonas aeruginosa; assay type: functional
[28] = tested on: Escherichia coli; experiment: Antibacterial activity against Escherichia coli; assay type: functional
[29] = tested on: Mycolicibacterium smegmatis; experiment: Antibacterial activity against Mycobacterium smegmatis; assay type: functional
[30] = tested on: Staphylococcus aureus; experiment: Antibacterial activity against Staphylococcus aureus; assay type: functional
[31] = tested on: Klebsiella pneumoniae; experiment: Antibacterial activity against Klebsiella pneumoniae; assay type: functional
[32] = tested on: Salmonella typhimurium; experiment: Antibacterial activity against Salmonella typhimurium assessed as inhibition was bacterial growth by broth micro dilution method; assay type: functional, Salmonella enterica subsp. enterica serovar Typhimurium; details: Salmonella enterica
[33] = tested on: Salmonella enterica subsp. enterica serovar Gallinarum; experiment: Antimicrobial activity against Salmonella gallinarum assessed as inhibition of visible growth incubated for 24 hrs by agar-dilution method; assay type: functional
[34] = Inhibition of Salmonella typhimurium DNA gyrase; parameters: species or system Salmonella enterica subsp. enterica serovar Typhimurium
[35] = tested on: Listeria monocytogenes; experiment: Antimicrobial activity against Listeria monocytogenes assessed as inhibition of visible growth incubated for 24 hrs by agar-dilution method; assay type: functional
[36] = tested on: Salmonella enterica; experiment: Antibacterial activity against Salmonella enterica assessed as inhibition was bacterial growth by broth micro dilution method; assay type: functional

T1 sequence (P0A0K8 whole entry): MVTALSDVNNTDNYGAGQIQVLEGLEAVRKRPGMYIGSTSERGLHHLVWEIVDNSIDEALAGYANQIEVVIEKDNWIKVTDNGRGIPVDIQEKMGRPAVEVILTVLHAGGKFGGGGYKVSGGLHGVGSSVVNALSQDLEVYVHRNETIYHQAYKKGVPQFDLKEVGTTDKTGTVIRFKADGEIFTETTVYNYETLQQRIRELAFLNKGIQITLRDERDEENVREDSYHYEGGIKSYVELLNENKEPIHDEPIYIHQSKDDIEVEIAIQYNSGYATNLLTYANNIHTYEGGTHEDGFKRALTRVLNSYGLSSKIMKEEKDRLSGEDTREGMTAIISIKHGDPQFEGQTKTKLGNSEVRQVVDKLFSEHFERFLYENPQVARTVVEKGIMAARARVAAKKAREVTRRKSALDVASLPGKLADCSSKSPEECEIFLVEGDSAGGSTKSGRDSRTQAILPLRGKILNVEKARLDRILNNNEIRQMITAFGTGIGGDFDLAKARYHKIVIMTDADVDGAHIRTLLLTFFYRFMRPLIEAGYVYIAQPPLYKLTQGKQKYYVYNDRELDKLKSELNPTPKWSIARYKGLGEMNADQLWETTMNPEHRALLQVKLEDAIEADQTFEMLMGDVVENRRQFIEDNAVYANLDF
T1 sequence (P20831 whole entry): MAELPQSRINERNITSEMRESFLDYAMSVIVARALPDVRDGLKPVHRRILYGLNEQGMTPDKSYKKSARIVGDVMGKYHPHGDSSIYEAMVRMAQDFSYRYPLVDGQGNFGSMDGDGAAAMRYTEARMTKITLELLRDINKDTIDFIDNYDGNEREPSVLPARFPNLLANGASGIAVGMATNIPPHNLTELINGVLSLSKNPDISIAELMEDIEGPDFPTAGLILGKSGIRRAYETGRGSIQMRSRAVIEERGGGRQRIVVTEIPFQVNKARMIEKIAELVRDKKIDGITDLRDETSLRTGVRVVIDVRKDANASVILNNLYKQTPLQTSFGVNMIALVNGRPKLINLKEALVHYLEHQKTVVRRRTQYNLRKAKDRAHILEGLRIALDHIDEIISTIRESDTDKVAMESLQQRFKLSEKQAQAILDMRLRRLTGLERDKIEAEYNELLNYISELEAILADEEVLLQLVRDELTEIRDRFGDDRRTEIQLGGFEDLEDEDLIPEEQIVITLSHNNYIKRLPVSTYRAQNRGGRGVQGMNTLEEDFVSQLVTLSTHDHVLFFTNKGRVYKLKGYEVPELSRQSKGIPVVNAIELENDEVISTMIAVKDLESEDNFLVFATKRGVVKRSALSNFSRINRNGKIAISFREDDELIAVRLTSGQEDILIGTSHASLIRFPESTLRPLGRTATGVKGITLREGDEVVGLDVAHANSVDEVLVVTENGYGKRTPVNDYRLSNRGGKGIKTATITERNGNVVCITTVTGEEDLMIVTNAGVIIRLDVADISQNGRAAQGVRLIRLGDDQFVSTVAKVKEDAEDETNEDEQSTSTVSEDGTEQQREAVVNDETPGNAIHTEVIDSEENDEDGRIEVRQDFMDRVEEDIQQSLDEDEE
T2 sequence (P9WG45 whole entry): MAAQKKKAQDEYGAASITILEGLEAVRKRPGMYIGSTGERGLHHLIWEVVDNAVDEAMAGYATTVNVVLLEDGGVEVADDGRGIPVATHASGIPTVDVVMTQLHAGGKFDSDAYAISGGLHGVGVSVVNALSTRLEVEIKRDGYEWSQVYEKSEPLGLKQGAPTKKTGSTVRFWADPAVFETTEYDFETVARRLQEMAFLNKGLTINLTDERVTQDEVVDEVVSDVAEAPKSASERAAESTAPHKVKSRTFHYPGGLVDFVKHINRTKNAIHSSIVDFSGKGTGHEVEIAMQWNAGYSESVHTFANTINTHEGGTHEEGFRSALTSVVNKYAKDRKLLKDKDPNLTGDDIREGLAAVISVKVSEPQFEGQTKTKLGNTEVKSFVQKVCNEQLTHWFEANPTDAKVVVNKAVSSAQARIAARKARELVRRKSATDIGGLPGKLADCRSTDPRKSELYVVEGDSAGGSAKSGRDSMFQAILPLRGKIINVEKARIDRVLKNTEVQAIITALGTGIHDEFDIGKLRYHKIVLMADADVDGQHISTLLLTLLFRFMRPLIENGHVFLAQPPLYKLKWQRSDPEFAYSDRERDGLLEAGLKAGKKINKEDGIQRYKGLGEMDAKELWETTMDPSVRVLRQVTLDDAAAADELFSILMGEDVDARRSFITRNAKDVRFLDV
T2 sequence (P9WG47 whole entry): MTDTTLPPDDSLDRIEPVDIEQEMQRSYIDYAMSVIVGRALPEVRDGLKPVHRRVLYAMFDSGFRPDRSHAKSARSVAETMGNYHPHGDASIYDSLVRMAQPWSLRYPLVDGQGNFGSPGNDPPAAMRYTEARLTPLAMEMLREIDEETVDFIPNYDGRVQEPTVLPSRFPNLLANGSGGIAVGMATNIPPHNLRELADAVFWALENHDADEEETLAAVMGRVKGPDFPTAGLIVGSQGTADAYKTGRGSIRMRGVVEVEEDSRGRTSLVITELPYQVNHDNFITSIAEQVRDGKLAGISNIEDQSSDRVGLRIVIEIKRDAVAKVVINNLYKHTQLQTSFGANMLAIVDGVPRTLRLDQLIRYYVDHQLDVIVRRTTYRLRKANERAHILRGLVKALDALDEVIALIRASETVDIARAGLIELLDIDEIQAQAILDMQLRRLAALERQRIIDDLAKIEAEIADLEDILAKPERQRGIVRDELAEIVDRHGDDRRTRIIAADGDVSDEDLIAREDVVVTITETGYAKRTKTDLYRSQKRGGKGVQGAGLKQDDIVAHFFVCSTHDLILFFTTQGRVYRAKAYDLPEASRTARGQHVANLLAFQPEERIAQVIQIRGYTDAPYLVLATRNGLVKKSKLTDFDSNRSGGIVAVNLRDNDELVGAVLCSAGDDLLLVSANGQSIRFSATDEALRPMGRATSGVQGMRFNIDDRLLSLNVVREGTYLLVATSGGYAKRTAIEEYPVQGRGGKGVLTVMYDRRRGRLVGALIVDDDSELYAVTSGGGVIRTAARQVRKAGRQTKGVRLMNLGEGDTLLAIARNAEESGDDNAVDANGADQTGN

Compound O=C1COc2cc(F)c(CNC3CCN(CCn4c(=O)c5nocc5c5ccc(F)cc54)CC3)nc2N1 has an IC50 [1] of 411 nM.

Compound O=C(O)CCC(=O)Nc1ccc(NC(=O)c2ccco2)cc1 has an IC50 [2] of 12900 nM.

COc1ccc2c3conc3c(=O)n(CCN3CCC(NCc4ccc5c(n4)NC(=O)CO5)CC3)c2c1 gave an IC50 [1] of 416 nM.

Compound O=C1Nc2ccccc2/C1=C/c1ccc(OC(=O)c2ccccc2)cc1 has an MIC [3] of 73 µg/mL (≈ 214 µM).

COc1c(NC(=O)c2ccc(NC(=O)C(C)(C)NC(=O)c3ccc(NC(=O)/C(C)=C/c4ccc(O)cc4)cc3)c(OC)c2O)ccc(C(=O)O)c1O gave an MIC [4] of 0.25 µM (≈ 0.178 µg/mL), an MIC ([4]; Escherichia coli, DSM 1116, read-out: MIC) of 0.5 µM (≈ 0.356 µg/mL) and an MIC [5] of 0.5 µM (≈ 0.356 µg/mL). For the same compound, the MIC [6] was 2 µM (≈ 1.43 µg/mL).

For O=C1COc2ccc(CNC3CCN(CCn4c(=O)c5nocc5c5ncccc54)CC3)nc2N1, the IC50 [1] was 442 nM.

For CCn1cc(-c2nc(NC(=O)c3ccccc3)n[nH]2)c(=O)c2ccc(C)nc21, the MIC [7] was 3.68 µM (≈ 1.38 µg/mL) and the IC50 [1] was 10400 nM.

With O=C(O)c1cn(C2CC2)c2cc(N3CCN(Cn4nc(CN5CCN(c6ccccc6)CC5)n(Cc5ccccc5)c4=O)CC3)c(F)cc2c1=O the MIC [8] was 8 µg/mL (≈ 11.5 µM), the MIC [9] was 0.125 µg/mL (≈ 0.18 µM) and the MIC [10] was 8 µg/mL (≈ 11.5 µM). For the same compound, the IC50 [1] was 750 nM, the MIC [11] was 0.125 µg/mL (≈ 0.18 µM) and the MIC [12] was 0.125 µg/mL (≈ 0.18 µM).

COc1c(N2CC3CCCCC3C2)c(F)cc2c(=O)c(C(=O)N3CCSC3)cn(C3CC3)c12 (centres undefined) showed an MIC [13] of 101 µg/mL (≈ 214 µM), an MIC [14] of 0.79 µg/mL (≈ 1.68 µM) and an MIC [15] of 0.79 µg/mL (≈ 1.68 µM). For the same compound, the MIC [16] was 50 µg/mL (≈ 106 µM), the IC50 [17] was 105000 nM and the MIC [18] was 12.6 µg/mL (≈ 26.7 µM). For the same compound, the MIC [19] was 25 µg/mL (≈ 53 µM).

O=C(O)C(=O)Nc1nc2ccc(NC(=O)c3cc(Br)c(Br)[nH]3)cc2s1 gave an IC50 [1] of 58 nM.

COc1cc(/C=N/Nc2nc(-c3ccc([N+](=O)[O-])cc3)cs2)ccc1Oc1ccnc2cc(Cl)ccc12 gave an MIC [20] of 3.12 µM (≈ 1.66 µg/mL).

Compound CCn1cc(C(=O)O)c(=O)c2ccc(C)nc21 [NALIDIXIC ACID] has an IC50 [14] of 47 µg/mL (≈ 202 µM) and an IC50 [21] of 47 µg/mL (≈ 202 µM).

CCn1cc(C(=O)N[C@@H](CC2CCCCC2)C(=O)N[C@H](CCCNC(=N)N)C(=O)N[C@@H](CC2CCCCC2)C(=O)N[C@H](CCCNC(=N)N)C(=O)N[C@@H](CC2CCCCC2)C(=O)N[C@H](CCCNC(=N)N)C(=O)N[C@@H](CC2CCCCC2)C(N)=O)c(=O)c2ccc(C)nc21 showed an IC50 [14] of 13 µg/mL (≈ 9.9 µM), an IC50 [21] of 13 µg/mL (≈ 9.9 µM) and an IC50 [2] of 25000 nM.

For CCNC(=O)Nc1nc2ccc(NC(=O)Cc3csc(NC(=O)OC(C)(C)C)n3)cc2s1, the IC50 [1] was 3900 nM.

For COc1cc2c(cc1OCCCC(=O)Nc1cc(C(=O)Nc3ccc4occc4c3)n(C)c1)N=C[C@@H]1CCCN1C2=O, the IC50 [22] was 2900 nM.

In the case of CCn1cc(-c2nc(/N=C/c3ccc(Br)cc3)n[nH]2)c(=O)c2cc(Br)c(C)nc21, the “inhibition zone (IZ)” value [23] is reported as 23 mm and the IC50 [1] is reported as 3370 nM.

Work on O=c1nc(N2CCN(C(=S)Nc3ccccc3)CC2)sc2ccc([N+](=O)[O-])cc12 yielded an IC50 [24] of 510 nM and an MIC [25] of 4.41 µM (≈ 1.89 µg/mL).

For O=C1COc2ccc(CNC3CCN(CCn4c(=O)c5ncoc5c5ccc(F)cc54)CC3)nc2N1, the IC50 [1] was 426 nM.

With CCn1cc(-c2nnc(Nc3ccc(C)cc3)o2)c(=O)c2cc(Br)c(C)nc21 the MIC [26] was 5.5 µg/mL (≈ 12.5 µM), the MIC [27] was 5.5 µg/mL (≈ 12.5 µM) and the MIC [28] was 5.5 µg/mL (≈ 12.5 µM). It also gave an MIC [29] of 5.5 µg/mL (≈ 12.5 µM), an MIC [30] of 5.5 µg/mL (≈ 12.5 µM) and an MIC [31] of 5.5 µg/mL (≈ 12.5 µM).

For O=C(O)CNC(=O)Cc1csc(NC(=O)c2cc(Br)c(Br)[nH]2)n1, the IC50 [1] was 15900 nM.

COc1ccc2c3conc3c(=O)n(CCN3CCC(NCc4nc5c(cc4F)OCC(=O)N5)CC3)c2c1 gave an IC50 [1] of 402 nM.

Compound CCNC(=O)Nc1nc2ccc(NC(=O)Cc3csc(NC(C)=O)n3)cc2s1 has an IC50 [1] of 5600 nM.

O=C(O)c1cn(C2CC2)c2cc(N3CCNCC3)c(F)cc2c1=O [CIPROFLOXACIN] gave an MIC [32] of 0.016 µg/mL (≈ 0.0483 µM), an MIC [13] of 0.78 µg/mL (≈ 2.35 µM) and an MIC [14] of 0.098 µg/mL (≈ 0.296 µM). It also gave an MIC [33] of 0.125 µg/mL (≈ 0.377 µM), an IC50 [34] of 0.25 µg/mL (≈ 0.754 µM) and an MIC [35] of 0.125 µg/mL (≈ 0.377 µM). For the same compound, the MIC [36] was 0.016 µg/mL (≈ 0.0483 µM), the MIC [15] was 0.2 µg/mL (≈ 0.604 µM) and the MIC [20] was 12.5 µM (≈ 4.14 µg/mL). The MIC [16] was 0.39 µg/mL (≈ 1.18 µM), the MIC [18] was 0.79 µg/mL (≈ 2.38 µM) and the MIC [19] was 6.3 µg/mL (≈ 19 µM).
